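Test compounds were applied to cells in 96-well plates for 48 hours at 5 doses. The concentration for full growth arrest is given as TGI.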

The record followed here is PubChem BioAssay (NCI).

Among the test systems are NCI-H522 lung; U251 CNS; M14 melanoma; MCF7 breast; A498 renal; K-562 leukemia; KM12 colon; HT29 colon; MDA-MB-231 breast; OVCAR-3 ovarian; OVCAR-5 ovarian.
Common to all, as to assay: NCI anticancer screen, dose series, 48 h

Take `CN(C)CCNC(=O)c1ccc(NCCCN(C)CCCNc2ccc3c(=O)n(CCN(C)C)c(=O)n4c5ccccc5c(=O)c2c34)c2c(=O)c3ccccc3[nH]c12`: the TGI in the assay with NCI-H522 lung amounted to 0.168 µM; in the assay on U251 CNS, 0.257 µM; with M14 melanoma it was 0.67 µM; in the assay on MCF7 breast it was 0.344 µM; with A498 renal, 0.415 µM; in the assay on K-562 leukemia it was 1.06 µM. Moreover, the TGI in the assay with KM12 colon is 0.319 µM; in the assay with HT29 colon it was 0.161 µM; in the assay with MDA-MB-231 breast, 0.234 µM; in the assay on OVCAR-3 ovarian, 0.23 µM; in the assay on OVCAR-5 ovarian, 0.68 µM.
Take `O=C1C=CC(=O)C(CNc2ccc(C(=O)OC34CC5CC(CC(C5)C3)C4)cc2)=C1`: the TGI in the assay with NCI-H522 lung is 2.28 µM; in the assay with U251 CNS, 16.4 µM; in the assay on M14 melanoma it was 31.1 µM; in the assay with MCF7 breast, 27.5 µM; in the assay on A498 renal it was 28 µM; with K-562 leukemia, greater than 49.3 µM. In addition, the TGI turned out to be 22.5 µM in the assay with KM12 colon; 24.6 µM with HT29 colon; 36.2 µM in the assay with MDA-MB-231 breast; 14.4 µM in the assay on OVCAR-3 ovarian; 39.2 µM in the assay on OVCAR-5 ovarian.
Turning to `C/C=C\C(CC(=O)NCCc1cn(C(=O)OCc2ccccc2)c2ccccc12)CC(=O)OC` (stereo not given), the TGI with NCI-H522 lung, with U251 CNS, with M14 melanoma, with MCF7 breast, with A498 renal and in the assay on K-562 leukemia was greater than 100 µM throughout. The TGI with KM12 colon, in the assay on HT29 colon, in the assay with MDA-MB-231 breast, with OVCAR-3 ovarian and with OVCAR-5 ovarian was greater than 100 µM each time.
Turning to `Cc1ccc(C2=NOC(=O)[C@@H]3CCCC[C@@H]23)cc1`, the TGI with NCI-H522 lung, in the assay with U251 CNS, with M14 melanoma, in the assay with MCF7 breast, in the assay on A498 renal and in the assay with K-562 leukemia was greater than 100 µM each time. In addition, the TGI in the assay with KM12 colon, in the assay with HT29 colon, in the assay on MDA-MB-231 breast, with OVCAR-3 ovarian and with OVCAR-5 ovarian was greater than 100 µM each time.
As for `CCOC(=O)C(=[N+]=[N-])C(=O)Nc1nn2nnnc2c2ccccc12`, the TGI with NCI-H522 lung, with U251 CNS, in the assay on M14 melanoma, with MCF7 breast, in the assay on A498 renal and with K-562 leukemia was greater than 100 µM throughout. For the same compound, the TGI with KM12 colon, in the assay on HT29 colon, in the assay on MDA-MB-231 breast, in the assay with OVCAR-3 ovarian and in the assay on OVCAR-5 ovarian was greater than 100 µM each time.
